Experiment [1] relates to mitochondrial membrane potential. Put plainly: Mitochondrial membrane potential (TMRE dye). Format: cell-based, human. Particulars: 250 nM CCCP. The method, then: Live Cell Imaging: 143B cells were seeded at 50% density in 6-well dishes 24 hours prior to the experiment. Cells were pre-incubated with 500 nM TMRE dye for 30 minutes and then imaging on a Nikon TE2000 inverted microscope was started. Images were taken at 1 minute intervals over the course of an hour in the mCherry channel while the plate was incubated in a chamber maintaining a temperature of 37° C. and 5% CO2.
Flow Cytometry: Cells were seeded 24 hours prior to the experiment at 50% density. On the day of the experiment, the cells were treated for the designated time with inhibitors. 30 minutes prior to the end of the incubation, 500 nM TMRE dye was added to the wells. Following incubation cells were washed, trypsinized, and filtered through a cell strainer prior to sorting. Fluorescence-activated cell sorting was performed on a LSR-II sorter, in which the fluorescence intensity of individual cells was quantified in the PE channel. Data were analyzed using FlowJo software (TreeStar).

Experiment [2] has as its target T1, SDH complex (Homo sapiens, UniProt O14521+P21912+P31040+Q99643).
T1 construct: endogenous in cells; host or cells: 143B cells (A5: live cells; A6: permeabilized mitochondria purified from them)
Put plainly: SDH forward/reverse activity (succinate oxidation, fumarate reduction) by stable isotope tracing in cells. In kind it is cell-based. The source says:
Fumarate reduction can be monitored in cells by the stable isotope tracing of either ^13C4-aspartate or ^13C5^15N2-glutamine. ^13C4-aspartate contributes to the fumarate pool via oxaloacetate and malate and so should lead to the production of ^13C4-succinate upon fumarate reduction (FIG. 2B). ^13C5^15N2-glutamine contributes to the fumarate pool through the reductive arm of the TCA cycle via glutamate, α-ketoglutarate, isocitrate, citrate, oxaloacetate, and malate. A key distinction between the two labeling approaches is that ^13C5^15N2-glutamine enriches the fumarate pool more upon antimycin treatment due to enhanced reductive carboxylation flux, whereas ^13C4-aspartate labels the fumarate pool to equivalent extents in vehicle and antimycin-treated cells (FIG. 2C). Therefore, with stable isotope tracing of ^13C4-aspartate, the level of ^13C4-succinate is a direct measure of fumarate reduction, whereas the stable isotope tracing of ^13C5^15N2-glutamine requires a ratiometric analysis of labeled succinate to labeled fumarate to normalize for differences in the extent of fumarate labeling.
To test if hypoxia triggers electron leakage onto fumarate or a net-reversal of the SDH complex, the ^13C5^15N2-glutamine tracer was utilized, which enables simultaneous quantification of the forward and reverse activities of SDH through the generation of unique isotopologues upon flux through the oxidative arm (α-ketoglutarate to succinate) compared to the reductive arm (α-ketoglutarate—via citrate—to fumarate) of the TCA cycle (FIG. 2E). In this assay, the forward (succinate oxidation) reaction was defined as the ratio of percent labeled ^13C4-fumarate to its precursor ^13C4-succinate (FIG. 2E) and the reverse (fumarate reduction) as that of percent labeled ^13C3-succinate to its precursor ^13C3-fumarate (FIG. 2E). This type of analysis can be performed when the labeling is in the steady-state, which was determined to be after 4-8 hours of incubation with ^13C5^15N2-glutamine (FIG. S2E-F). This ratiometric analysis of the succinate and fumarate isotopologues eliminates potential biases in the assay, such as higher ^13C3-fumarate labeling in antimycin-treated cells caused increased reductive carboxylation flux (FIG. S2E).
Stable isotope tracing in cells: Cells were seeded 24 hours prior to the experiment in 6-well dishes at 70% density. For stable isotope tracing of glutamine, glutamine-free DMEM (ThermoFisher) was supplemented with 2 mM ^13C5^15N2-glutamine (Sigma), 1 mM pyruvate, 5% FBS, 1% P/S, 0.1 mg/mL uridine. For stable isotope tracing of aspartate, DMEM containing 5% FBS, and 1% penicillin and streptomycin, and 0.1 mg/mL uridine (Sigma) was supplemented with the designated amount of 13C4-aspartate (Sigma) and the pH adjusted to 7.4. Uridine was left out of the media for stable isotope tracing experiments measuring nucleotide biosynthesis. Unless otherwise stated, for all experiments, cells were treated for 8 hours and metabolites were isolated as described below. Relevant compounds were added at the start of the incubation periods.

Experiment [3] concerns 143B cells. Put plainly: Oxygen consumption rate of cultured cells. In kind it is cell-based, human. Particulars: UQCRC2 and COX4 knockout cells. The method, then: Oxygen Consumption Rate (Seahorse): Respiration was measured on intact 143B cells and on mitochondria purified from tissue on the Seahorse XFe-96 Analyzer (Seahorse Bioscience). Cells were incubated in a non-CO2 37° C. incubator in serum-free Seahorse XF RPMI Media (Seahorse Bioscience, Catalog #103336) supplemented with 5 mM glucose, 2 mM glutamine, and 1 mM pyruvate. Oxygen consumption rate (OCR) was measured over a period of 30 minutes. Oxygen consumption rate was also measured on mitochondria purified from mouse tissues. Mitochondria were incubated in MAS buffer (70 mM sucrose, 220 mM mannitol, 10 mM KH2PO4, 5 mM MgCl2, 2 mM HEPES pH 7.2, 1 mM EGTA, 2% BSA) supplemented with 2 mM ADP, 5 mM glutamate, 5 mM malate, 5 mM pyruvate, and 2.5 mM succinate. Oxygen consumption rate (OCR) was measured over a period of 30 minutes.
Oxygen Consumption Rate (Resipher): 25,000 143B cells were seeded into Thermo Nunc Treated, Flat-Bottom 96-Well Microplate (167008) in standard culture medium 24 hours prior to experimentation. […] Live oxygen consumption rate was measured for 3 hours and then media was changed to treat cells with the appropriate inhibitors. Live oxygen consumption rate was monitored for an additional 3 hours. Data were analyzed on Resipher web application (Lucid Scientific).

For experiment [4], the system named is 143B cells. Kind of experiment: Cell proliferation. Format: cell-based, human. As to conditions: for proliferation: UQCRC2 and COX4 knockout cells. As for the experimental part:
Proliferation: 25,000 cells were seeded in 6-well dishes and counted on day 1 and day 5 on a Beckman Coulter Counter. Doubling times were calculated using the following equation: […]

For experiment [5], the target named is DHODH (Homo sapiens, UniProt Q02127).
Chain of DHODH (Q02127 whole entry): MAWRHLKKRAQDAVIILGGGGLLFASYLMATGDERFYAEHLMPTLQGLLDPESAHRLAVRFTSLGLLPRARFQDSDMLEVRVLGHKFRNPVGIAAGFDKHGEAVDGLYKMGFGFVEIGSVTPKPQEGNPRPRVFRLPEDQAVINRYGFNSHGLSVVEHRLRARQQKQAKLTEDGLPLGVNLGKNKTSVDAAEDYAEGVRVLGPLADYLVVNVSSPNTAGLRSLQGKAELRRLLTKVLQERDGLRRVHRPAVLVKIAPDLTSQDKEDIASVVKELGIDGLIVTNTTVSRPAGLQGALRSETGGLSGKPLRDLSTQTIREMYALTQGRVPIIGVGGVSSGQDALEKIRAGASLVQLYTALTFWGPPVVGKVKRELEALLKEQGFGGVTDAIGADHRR
Experimental: Isolation of metabolites from adherent cells: To isolate metabolites, media was removed, cells were washed 2 times with ice cold 1×PBS, and wells were covered in LC-MS grade 80:20 Methanol:Water (ThermoFisher). Plates were scraped on dry ice and lysates were collected into eppendorf tubes. Lysates were vortexed for 10 minutes at 4° C. and centrifuged at 16,000×g for 10 minutes at 4° C. Supernatants were immediately dried down in a Refrigerated CentriVap Benchtop Vacuum Concentrator connected to a CentriVap-105 Cold Trap (Labconco). Dried pellets were stored at −80° C. until they were run on LC-MS.
Liquid Chromatography and Mass Spectrometry (polar): A QExactive bench top orbitrap mass spectrometer equipped with an Ion Max source and a HESI II probe coupled to a Dionex UltiMate 3000 HPLC system (Thermo Fisher Scientific) was used to perform all LC-MS experiments. The instrument underwent mass calibration using the standard calibration mixture every 7 days. 2 μL of re-suspended polar metabolite samples were injected onto a SeQuant ZIC-pHILIC 5 μm 150×2.1 mm analytical column equipped with a 2.1×20 mm guard column (MilliporeSigma). The column oven was held at 25° C. and the autosampler tray was held at 4° C. Buffer A was comprised of 20 mM ammonium carbonate, 0.1% ammonium hydroxide. Buffer B was comprised of 100% acetonitrile. The chromatographic gradient was run at a flow rate of 0.150 mL/min as follows: 0-20 min: linear gradient from 80-20% B; 20-20.5 min: linear gradient from 20-80% B; 20.5-28 min: hold at 80% B. The mass spectrometer was operated in full-scan, polarity-switching mode, with the spray voltage set to 3.0 kV, the heated capillary at 275° C., and the HESI probe at 350° C. The sheath gas flow was 40 units, the auxiliary gas flow was 15 units, and the sweep gas flow was 1 unit. MS data was collected in a range of m/z=70-1000. The resolution set at 70,000, the AGC target at 1×106, and the maximum injection time at 20 msec. An additional scan (m/z=220-700) was included in negative mode only to enhance detection of nucleotides.
Experiment [6] concerns SDH complex. Kind of experiment: SDH activity assay in permeabilized purified mitochondria. Format: biochemical, human. As to conditions: permeabilized purified mitochondria; 1 μM piericidin. As for the experimental part: SDH activity was examined in permeabilized purified mitochondria. The rate of succinate oxidation was measured by monitoring fumarate production over time after initiating the reaction with succinate. The rate of fumarate reduction was measured in a separate assay by monitoring the rate of succinate production over time after initiating the reaction with fumarate and NADH. […] Moreover, complex I inhibition by piericidin suppressed the fumarate reduction caused by antimycin treatment (FIG. 2I).
(§1) Isolation of Mitochondria for Biochemical Assays: 143B cells were scraped and pelleted at 1000×g for 5 minutes. Cell pellets were washed in 1×PBS and pelleted at 1000×g for 5 minutes. For tissue samples, approximately 100 mg of tissue powder was weighed out. Tissue powder or cells were re-suspended in isolation buffer (200 mM sucrose, 10 mM Tris HCl, 1 mM EGTA/Tris, pH 7.4 (adjusted with 1M HEPES)), transferred into an ice-cold glass homogenizer (VWR), and dounced with 15-30 strokes. Homogenates were transferred into tubes and spun at 600×g for 10 minutes at 4° C. Supernatants were moved to a new tube and centrifugation was repeated. Then, supernatants were moved to a new tube and pelleted at 7,000×g for 10 minutes at 4° C. Pellets were washed in isolation buffer and centrifugation was repeated. Pellets were subsequently stored at −80° C. until use.
SDH Activity Assay: Purified mitochondria were re-suspended in buffer (0.22 M Mannitol, 0.075 M Sucrose, 1 mM EDTA, 10 mM HEPES pH 7.4, and one complete Protease inhibitor tablet (Sigma)) to a concentration of 5 mg/mL and underwent 5 freeze-thaw cycles to permeabilize them. 30 μg mitochondria (6 uL) were diluted 1:10 (in 54 uL) of SDH activity assay buffer (27.5 mM KH2PO4 pH 7.4, 1.1 mM CoQ-10 (Sigma), 3.5 g/L BSA). Reactions were supplemented with DMSO, 1 μM antimycin, or 1 μM piericidin and pre-incubated at 37° C. for 10 minutes. […] Samples were centrifuged at 16,000×g for 10 minutes at 4° C. and supernatants were dried down and analyzed by LC-MS for succinate and fumarate.

Experiment [7] relates to complex I. Kind of experiment: Complex I activity assay (DCPIP) on purified mitochondria. In kind it is biochemical, human. As to conditions: mitochondria from wild-type, UQCRC2 KO and COX4 KO 143B cells; 1 μM rotenone. As for the experimental part: as §1
Complex 1 activity assay (DCPIP): Purified mitochondria were re-suspended in buffer (0.22 M Mannitol, 0.075 M Sucrose, 1 mM EDTA, 10 mM HEPES pH 7.4, and one complete Protease inhibitor tablet (Sigma)) to a concentration of 5 mg/mL. […] Either 1 μM rotenone or equivalent DMSO was added to each well and baseline absorbance at 600 nm was measured on a SpectraMax iD5 plate reader (Molecular Devices). Reactions were initiated by adding NADH (Sigma) to a final concentration of 2 mM and absorbance at 600 nm was monitored over time.

We go through seven molecules from patent US20250032430A1, “USES OF RHODOQUINONE FOR THE TREATMENT OF DISEASE” (Whitehead Institute for Biomedical Research, priority 2021, published 2025).

T1 sequence (P31040 43-664): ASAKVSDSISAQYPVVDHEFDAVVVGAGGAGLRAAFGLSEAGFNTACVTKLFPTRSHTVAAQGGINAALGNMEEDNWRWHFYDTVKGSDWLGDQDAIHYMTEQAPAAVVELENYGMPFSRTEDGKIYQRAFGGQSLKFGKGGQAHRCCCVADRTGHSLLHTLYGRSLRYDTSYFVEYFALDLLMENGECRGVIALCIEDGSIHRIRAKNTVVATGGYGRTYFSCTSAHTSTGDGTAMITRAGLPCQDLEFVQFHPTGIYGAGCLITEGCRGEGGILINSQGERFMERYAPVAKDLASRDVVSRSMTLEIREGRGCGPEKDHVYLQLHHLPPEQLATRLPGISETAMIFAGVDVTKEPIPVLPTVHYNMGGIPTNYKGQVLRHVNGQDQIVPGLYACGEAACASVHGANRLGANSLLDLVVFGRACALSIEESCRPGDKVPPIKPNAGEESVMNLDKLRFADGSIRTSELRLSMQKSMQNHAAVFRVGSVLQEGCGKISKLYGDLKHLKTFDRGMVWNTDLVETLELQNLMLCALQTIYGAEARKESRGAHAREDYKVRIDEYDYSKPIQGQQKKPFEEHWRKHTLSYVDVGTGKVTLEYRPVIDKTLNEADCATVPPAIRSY
T1 sequence (P21912 29-280): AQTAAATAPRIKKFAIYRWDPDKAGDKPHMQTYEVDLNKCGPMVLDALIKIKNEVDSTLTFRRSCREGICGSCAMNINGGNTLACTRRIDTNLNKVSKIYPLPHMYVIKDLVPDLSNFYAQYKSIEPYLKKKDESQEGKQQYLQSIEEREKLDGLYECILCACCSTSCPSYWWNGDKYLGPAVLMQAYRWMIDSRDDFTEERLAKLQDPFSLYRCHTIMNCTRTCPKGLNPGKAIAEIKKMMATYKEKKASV
T1 sequence (Q99643 30-169): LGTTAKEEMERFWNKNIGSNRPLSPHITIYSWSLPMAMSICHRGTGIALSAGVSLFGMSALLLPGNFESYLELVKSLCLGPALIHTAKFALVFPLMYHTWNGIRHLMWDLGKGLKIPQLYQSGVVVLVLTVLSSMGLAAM
T1 sequence (O14521 57-159): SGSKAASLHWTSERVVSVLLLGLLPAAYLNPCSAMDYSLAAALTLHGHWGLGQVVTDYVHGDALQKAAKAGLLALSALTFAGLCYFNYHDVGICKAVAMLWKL

Take `N#CC(C#N)=NNc1cccc(Cl)c1` [CCCP, Carbonyl cyanide 3-chlorophenylhydrazone]: the TMRE fluorescence entry in experiment [1] is given as “reduced fluorescence”.

Regarding `CC1(C)CC(NC(=O)C[P+](c2ccccc2)(c2ccccc2)c2ccccc2)CC(C)(C)N1[O]` [MitoTEMPO], the fumarate reduction entry is recorded as “did not affect” in experiment [2] (antimycin-treated 143B cells) and “significant decrease” in experiment [2] (vehicle-treated 143B cells).

Regarding `Cc1c(-c2ccc(-c3ccccc3F)cc2)nc2ccc(F)cc2c1C(=O)O` [brequinar], in experiment [3], the O2 consumption rate result was “no effect”. For the same molecule, the proliferation entry in experiment [4] is “reduced”. Moreover, in experiment [4] (culture media supplemented with aspartate, antimycin-treated cells), the “aspartate-increased proliferation of antimycin-treated cells” value is “ablated”. For the same molecule, in experiment [5] (UQCRC2 and COX4 knockout 143B cells, 2 μM brequinar), the 13C3-UTP biosynthesis result is on record as “ablated”. Besides, in experiment [5] (wild-type 143B cells, 13C4-aspartate tracing 8 hours, 500 nM antimycin, 2 μM brequinar), the “de novo UTP biosynthesis (13C3-UTP generation, DHODH activity)” value is given as “ablated”.

As for `COC(=O)CCC(=O)OC` [dimethylsuccinate], the “increase in fumarate reduction caused by antimycin treatment” value in experiment [2] (143B cells, antimycin co-treatment) is recorded as “slightly suppressed”.

Take `O=C(O)CC(=O)O` [malonic acid]: the fumarate reduction result in experiment [2] (SDHB knockout cells) is reported as “no effect”; in experiment [2] (UQCRC2 and COX4 knockout cells) it was “almost completely ablated”. In addition, the proliferation entry in experiment [4] is given as “significantly reduced”.

In the case of `C/C=C(\C)[C@H](O)[C@H](C)/C=C(C)/C=C/C/C(C)=C/Cc1nc(OC)c(OC)c(O)c1C` [piericidin], in experiment [6], the “fumarate reduction caused by antimycin treatment” value is on record as “suppressed”. Moreover, the O2 consumption rate entry in experiment [3] was “did not affect”. For the same molecule, the proliferation result in experiment [4] is reported as “did reduce their proliferation, although to a lesser extent than in wild-type cells”. Also, the “DHODH activity (13C4-aspartate into 13C3-UTP)” value in experiment [5] (combined inhibition of complex III with antimycin and complex I with piericidin) is “no effect”.

Turning to `C=C(C)[C@H]1Cc2c(ccc3c2O[C@@H]2COc4cc(OC)c(OC)cc4[C@@H]2C3=O)O1` [rotenone], the “complex I activity” value in experiment [7] is on record as “significantly reduced”.
